By IC50 is commonly meant the point on the concentration scale where inhibition reaches its midpoint.

The first test concerns the target T1, GLUT1 (Homo sapiens, UniProt P11166).
T1 sequence (P11166 1-492): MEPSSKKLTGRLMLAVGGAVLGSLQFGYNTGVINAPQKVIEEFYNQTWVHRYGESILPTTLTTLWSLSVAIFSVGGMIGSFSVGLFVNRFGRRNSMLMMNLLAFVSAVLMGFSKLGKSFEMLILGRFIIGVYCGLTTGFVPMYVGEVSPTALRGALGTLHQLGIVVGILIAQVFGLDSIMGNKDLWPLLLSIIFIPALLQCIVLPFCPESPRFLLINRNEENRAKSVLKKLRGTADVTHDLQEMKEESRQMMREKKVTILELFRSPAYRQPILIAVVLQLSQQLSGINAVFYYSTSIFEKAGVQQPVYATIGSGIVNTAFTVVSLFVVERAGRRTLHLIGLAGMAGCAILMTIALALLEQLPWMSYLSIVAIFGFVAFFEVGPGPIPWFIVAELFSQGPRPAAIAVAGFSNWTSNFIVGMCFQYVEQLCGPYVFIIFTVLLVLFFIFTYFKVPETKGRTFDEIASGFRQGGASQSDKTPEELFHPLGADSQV
Put plainly: Indirect measurement of GLUT1 activity by quantification of intracellular ATP levels (glucose induced ATP increase). The conditions noted are these: DLD1 cells; 0.1 mM glucose, 1 μM Rotenone, 15 min; CellTiter-Glo ATP readout; IC50 values standardized to cytochalasin B IC50 values; read-out: IC50 regarding glucose induced ATP increase (GLUT1 inhibition). Set-up: endogenous in cells; host or cells: DLD1 or CHO-K1. It counts as cell-based. From the text:
Indirect Measurement of GLUT1 and GLUT2 Activity by Quantification of Intracellular ATP Levels
It is well known that a combination of small-molecule inhibitors of mitochondrial electron transport chain and glucose catabolism synergistically suppress ATP production and impair cellular viability (Ulanovskaya et al., 2008, 2011; Liu, et al. 2001). We therefore used DLD1 or CHO-K1 cells in combination with an oxidative phosphorylation inhibitor to identify GLUT1 and GLUT2 inhibitors. Cell lines were maintained in DMEM medium supplemented with 10% FCS and 1% Penicillin-Streptomycin solution and 2% Glutamax. The cells were treated with trypsin and seeded into 384 plates at a density of 4000 cells/well. The cells were then cultured overnight in glucose free media containing 1% FCS to reduce intracellular ATP levels. […] The CellTiter-Glo® Luminescent Cell Viability Assay from Promega was then used to measure ATP Levels.
(In general: ATP-based viability assays read luminescence as a measure of living cells.)
For the molecule `Cc1c(NC(=O)c2cc(C(N)=O)nc3cc(F)ccc23)c(C(F)(F)F)nn1Cc1ccccc1OC(F)(F)F` [Example 1703], the IC50 turned out to be 387 nM.

Still in this test, the particulars now being: read-out: IC50 regarding glucose induced ATP increase (GLUT1 inhibition).
Turning to `Cc1c(NC(=O)c2cc(C(N)=O)nc3ccccc23)c(C(F)(F)F)nn1Cc1ccc(S(C)(=O)=O)cc1` [Example 1432], the half-inhibitory concentration (IC50) amounted to 27.4 nM. `COc1cc(C(=O)Nc2c(C)nn(Cc3c(F)cccc3F)c2C)c2ccccc2n1` [Example 42, N-[1-(2,6-difluorobenzyl)-3,5-dimethyl-1H-pyrazol-4-yl]-2-methoxyquinoline-4-carboxamide]: the half-maximal inhibitory concentration (IC50) is 30.9 nM. Turning to `Cc1nn(Cc2ccc(C(=O)NC(CO)CO)cn2)c(C)c1NC(=O)c1cc(C(F)(F)F)nc2ccc(Br)cc12` [Example 1230], the concentration for half-maximal inhibition (IC50) was determined as 1000 nM. In the case of `Cc1c(NC(=O)c2cc(C(N)=O)nc3ccccc23)c(C(F)(F)F)nn1Cc1cc(CN2CCOCC2)on1` [Example 1702], the 50% inhibitory concentration (IC50) came to 140 nM.

Consider `Cc1nn(Cc2ccc(F)cc2)c(C)c1NC(=O)c1cc(C(N)=O)nc2cc(F)c(F)cc12` [Example 120, 6,7-difluoro-N^4-[1-(4-fluorobenzyl)-3,5-dimethyl-1H-pyrazol-4-yl]quinoline-2,4-dicarboxamide], for which the IC50 is 1.5 nM. The same measure, in the same setting: as for `Cc1nn(Cc2ccc(C#N)cc2)c(C)c1NC(=O)c1cc(C(F)(F)F)nc2c(Cl)cc(Cl)cc12` [Example 11, 6,8-dichloro-N-[1-(4-cyanobenzyl)-3,5-dimethyl-1H-pyrazol-4-yl]-2-(trifluoromethyl)quinoline-4-carboxamide], the figure is 6.6 nM; as for `Cc1c(NC(=O)c2cc(C(N)=O)nc3cc(F)c(Br)cc23)c(C(F)(F)F)nn1Cc1ccc(C#N)cc1` [Example 1611], 0.8 nM. Turning to `Cc1nn(Cc2ccc(F)cc2)c(C)c1NC(=O)c1cc(C(F)(F)F)nc2ccc(C(N)=O)cc12` [Example 1294], the concentration for half-maximal inhibition (IC50) is 8120 nM.

Turning to `Cc1c(NC(=O)c2cc(C(N)=O)nc3cc(F)c(Cl)cc23)c(C(F)(F)F)nn1Cc1ccccc1OC(F)(F)F` [Example 1704], the half-maximal inhibitory concentration (IC50) came out at 110 nM. For the molecule `Cc1nn(Cc2ccc(C#N)cc2)c(C)c1NC(=O)c1cc(C(=O)N2CCC2)nc2cc(F)ccc12` [Example 1428], the half-maximal inhibitory concentration (IC50) is 12.3 nM. Consider `Cc1nn(Cc2ccc(C(=O)NCCC(N)=O)cc2)c(C)c1NC(=O)c1cc(C(F)(F)F)nc2ccc(Br)cc12` [Example 1067], for which the IC50 was 19.2 nM. On to `Cc1nn(Cc2ccc(F)cc2)c(C)c1NC(=O)c1cc(C2CC2)nc2ccc(F)cc12` [Example 10, 2-cyclopropyl-6-fluoro-N-[1-(4-fluorobenzyl)-3,5-dimethyl-1H-pyrazol-4-yl]quinoline-4-carboxamide], for which the IC50 amounted to 6.4 nM. Consider `COc1cc(C(=O)Nc2c(C(F)(F)F)nn(Cc3ccc(C#N)cn3)c2C)c2ccccc2n1` [Example 365, N-{1-[(5-cyanopyridin-2-yl)methyl]-5-methyl-3-(trifluoromethyl)-1H-pyrazol-4-yl}-2-methoxyquinoline-4-carboxamide], for which the IC50 is 26.6 nM. With `Cc1c(NC(=O)c2cc(C(N)=O)nc3cccc(F)c23)c(C(F)(F)F)nn1Cc1ccc(C#N)cc1F` [Example 306, N^4-[1-(4-cyano-2-fluorobenzyl)-5-methyl-3-(trifluoromethyl)-1H-pyrazol-4-yl]-5-fluoroquinoline-2,4-dicarboxamide], the IC50 is 4.7 nM. With `CC(=O)c1ccc(Cn2nc(C)c(NC(=O)c3cc(C(N)=O)nc4cccc(F)c34)c2C)cc1` [Example 1609], the IC50 came out at 1.2 nM. For the molecule `Cc1cccc(Cn2nc(C)c(NC(=O)c3cc(C(N)=O)nc4cc(F)c(Cl)cc34)c2C)c1` [Example 1476], the half-maximal inhibitory concentration (IC50) came out at 2.9 nM. Still for that read-out and setting: as for `COc1cc(C(=O)Nc2c(C)nn(CCc3cccc(F)c3)c2C)c2ccccc2n1` [Example 1202], the figure is 430 nM; as for `Cc1c(NC(=O)c2cc(C(F)(F)F)nc3ccc(Br)cc23)c(C(F)(F)F)nn1Cc1ccc(F)cc1F` [Example 179, 6-bromo-N-[1-(2,4-difluorobenzyl)-5-methyl-3-(trifluoromethyl)-1H-pyrazol-4-yl]-2-(trifluoromethyl)quinoline-4-carboxamide], 78.5 nM.

In the case of `Cc1nonc1Cn1nc(C)c(NC(=O)c2cc(C(N)=O)nc3ccccc23)c1C` [Example 1515], the half-inhibitory concentration (IC50) was found to be 319 nM. On to `CCOC(=O)c1cc(Cn2nc(C(F)(F)F)c(NC(=O)c3cc(C(N)=O)nc4cc(F)ccc34)c2C)on1` [Example 1677], for which the half-maximal inhibitory concentration (IC50) was 353 nM. Take `Cc1nn(Cc2ccc(F)cc2)c(C)c1NC(=O)c1cc(C(F)(F)F)nc2cc(F)ccc12` [Example 29, 7-fluoro-N-[1-(4-fluorobenzyl)-3,5-dimethyl-1H-pyrazol-4-yl]-2-(trifluoromethyl)quinoline-4-carboxamide]: the half-inhibitory concentration (IC50) stood at 19 nM.

For the molecule `COc1cc(C(=O)Nc2c(C)nn(Cc3ccc(C)cc3)c2C)c2ccccc2n1` [Example 61, N-[3,5-dimethyl-1-(4-methylbenzyl)-1H-pyrazol-4-yl]-2-methoxyquinoline-4-carboxamide], the half-maximal inhibitory concentration (IC50) amounted to 110 nM. Turning to `COC(=O)c1coc(Cn2nc(C(F)(F)F)c(NC(=O)c3cc(C(N)=O)nc4ccccc34)c2C)n1` [Example 1680], the IC50 was 146 nM. As for `CNC(=O)c1nn(Cc2ccc(F)cc2)c(C)c1NC(=O)c1cc(OC)nc2ccccc12` [Example 1253], the half-inhibitory concentration (IC50) is 1970 nM. For `Cc1nn(Cc2ncccc2C#N)c(C)c1NC(=O)c1cc(C(N)=O)nc2cc(F)c(F)cc12` [Example 222, N^4-{1-[(3-cyanopyridin-2-yl)methyl]-3,5-dimethyl-1H-pyrazol-4-yl}-6,7-difluoroquinoline-2,4-dicarboxamide], the IC50 was 7.1 nM. For `Cc1nn(Cc2cc(C(C)C)no2)c(C)c1NC(=O)c1cc(C(N)=O)nc2ccccc12` [Example 1562], the concentration for half-maximal inhibition (IC50) is 55.9 nM. Turning to `Cc1nn(Cc2c(F)cccc2F)c(C)c1NC(=O)c1cc(C(N)=O)nc2cc(F)ccc12` [Example 1631], the IC50 worked out at 6.5 nM.

Take `Cc1cc(F)ccc1Cn1nc(C(F)(F)F)c(NC(=O)c2cc(C(N)=O)nc3cc(F)c(Cl)cc23)c1C` [Example 1712]: the IC50 amounted to 6.5 nM. For the molecule `Cc1nn(Cc2ccc(C(=O)NCCc3ccccn3)cc2)c(C)c1NC(=O)c1cc(C(F)(F)F)nc2ccc(Br)cc12` [Example 1139], the IC50 stood at 105 nM. `Cc1nn(Cc2ccc(F)cc2)c(C)c1NC(=O)c1cc(C(F)(F)F)nc2cccc(Br)c12` [Example 34, 5-bromo-N-[1-(4-fluorobenzyl)-3,5-dimethyl-1H-pyrazol-4-yl]-2-(trifluoromethyl)quinoline-4-carboxamide]: the IC50 amounted to 25.2 nM. `Cc1c(NC(=O)c2cc(C(N)=O)nc3ccc(Cl)cc23)c(C(F)(F)F)nn1Cc1ccc(C#N)cc1` [Example 248, 6-chloro-N^4-[1-(4-cyanobenzyl)-5-methyl-3-(trifluoromethyl)-1H-pyrazol-4-yl]quinoline-2,4-dicarboxamide]: the half-maximal inhibitory concentration (IC50) came out at 0.6 nM. `CCc1nn(Cc2ccc(C#N)cc2)c(CC)c1NC(=O)c1cc(C(F)(F)F)nc2ccc(Br)cc12` [Example 309, 6-bromo-N-[1-(4-cyanobenzyl)-3,5-diethyl-1H-pyrazol-4-yl]-2-(trifluoromethyl)quinoline-4-carboxamide]: the IC50 worked out at 363 nM. Take `Cc1nn(Cc2ccc(Cl)s2)c(C)c1NC(=O)c1cc(C(F)(F)F)nc2ccc(Br)cc12` [Example 180, 6-bromo-N-{1-[(5-chlorothiophen-2-yl)methyl]-3,5-dimethyl-1H-pyrazol-4-yl}-2-(trifluoromethyl)quinoline-4-carboxamide]: the concentration for half-maximal inhibition (IC50) was 93.7 nM. For `Cc1nn(Cc2ccc(C(=O)NCc3ccc(F)cc3)cc2)c(C)c1NC(=O)c1cc(C(F)(F)F)nc2ccc(Br)cc12` [Example 1119], the half-maximal inhibitory concentration (IC50) came out at 65.1 nM. As for `COc1cc(C(=O)Nc2c(C(F)(F)F)nn(Cc3ccc(C#N)cc3F)c2C)c2ccccc2n1` [Example 1359], the IC50 turned out to be 22 nM. For the molecule `Cc1nn(CC2CCN(C(=O)OC(C)(C)C)CC2)c(C)c1NC(=O)c1cc(C(N)=O)nc2ccccc12` [Example 1184], the IC50 was 242 nM. As to `Cc1c(NC(=O)c2cc(C(N)=O)nc3cc(F)c(Cl)cc23)c(C(F)(F)F)nn1Cc1ccc(OC(F)(F)F)cc1` [Example 1468], the 50% inhibitory concentration (IC50) turned out to be 12.9 nM. With `Cc1nn(CCCc2ccc(C#N)cc2)c(C)c1NC(=O)c1cc(C(N)=O)nc2cc(F)c(Cl)cc12` [Example 346, 6-chloro-N^4-{1-[3-(4-cyanophenyl)propyl]-3,5-dimethyl-1H-pyrazol-4-yl}-7-fluoroquinoline-2,4-dicarboxamide], the 50% inhibitory concentration (IC50) was 0.6 nM.

Values taken from US20170037028A1 (BAYER PHARMA AKTIENGESELLSCHAFT, priority 2013, published 2017).
